{"source": "patent US10736937B2", "about": "(priority 2014, dated 2020)", "origin": "cited, not measured here", "system": "Streptococcus pneumoniae", "conditions": "mucosal administration; co-administrated with the pathogen or 2 to 24 h before bacterial challenge"}
{"substance": "flagellin", "values": [{"measurement": "protection against Streptococcus pneumoniae lung infection", "result": "protect"}]}
